Assay results taken from patent US5489613A, “Carbacyclin derivatives, process for their preparation and compositions containing them” (priority 1983, dated 1996).
≈ marks a conversion by molar mass, not a printed value.

Tests used:
Type in all cases: cell-based
[1] = system: platelet aggregation (platelet-rich plasma); assay: Inhibition of platelet aggregation (ADP-induced), Born's turbidimetric method, rabbit blood; conditions: Oryctolagus cuniculus, 2 min, read-out: Concentration (ng/ml) for 50% inhibition, rabbit blood
Description: (§1) Platelet aggregation was determined by the following means: 0.05 ml of a test liquid (containing, in various concentrations, the compound whose inhibitory effect was to be tested) was added to 1 ml of this platelet-rich plasma; two minutes after the addition, 0.2 ml of a liquid containing adenosine diphosphate at a concentration of 5 μM was added; the increase in light transmission at 600 nm was determined by means of a platelet aggregometer manufactured by Bryston Co. Limited.

[2] = system: platelet aggregation (platelet-rich plasma); assay: Inhibition of platelet aggregation (ADP-induced), Born's turbidimetric method, human blood; conditions: 2 min, read-out: Concentration (ng/ml) for 50% inhibition, human blood
Description: as §1

blood platelets = assay: Inhibition of aggregation of blood platelets (thrombocyte agglutination), stated in words
[3] = rabbit platelet-rich plasma, adenosine diphosphate 5 μM, 2 min after addition of test liquid, 600 nm
[4] = human platelet-rich plasma, adenosine diphosphate 5 μM, 2 min after addition of test liquid, 600 nm

Row | IC50 [1, 3] [ng/mL] | IC50 [2, 4] [ng/mL] | SMILES | IC50 ([1]; Platelet) [ng/mL] | IC50 ([2]; Homo sapiens, Platelet) [ng/mL] | ability to inhibit aggregation of blood platelets (blood platelets)
1 | 1.1 (≈ 2.92 nM) | 1.8 (≈ 4.78 nM) | C=CCCCC(C)[C@H](O)/C=C/[C@@H]1[C@H]2CC(CCCCC(=O)O)=C[C@H]2C[C@H]1O (stereo partly drawn) [Compound 60, 3-(4-Carboxybutyl)-6β-(3α-hydroxy-4-methylnona-1,8-dienyl)-7α-hydroxy-cis-bicyclo[3,3,0]oct-2-ene] | – | – | –
2 | 3.6 (≈ 9.99 nM) | 0.4 (≈ 1.11 nM) | CC#CCC(C)[C@H](O)/C=C/[C@@H]1[C@H]2CC(CCCCC(=O)O)=C[C@H]2C[C@H]1O (stereo partly drawn) [Compound 85, 3-(4-Carboxybutyl)-6β-(3α-hydroxy-4-methyloct-1-en-6-ynyl)-7α-hydroxy-cis-bicyclo[3,3,0]oct-2-ene] | – | – | –
3 | 3.7 (≈ 10.6 nM) | 0.5 (≈ 1.43 nM) | O=C(O)CCCCC1=C[C@H]2C[C@@H](O)[C@H](/C=C/[C@@H](O)C3CCCC3)[C@H]2C1 [Compound 90, 3-(4-Carboxybutyl)-6β-(3α-hydroxy-3-cyclopentylprop-1-enyl)-7α-hydroxy-cis-bicyclo[3,3,0]oct-2-ene] | – | – | –
4 | 3.3 (≈ 9.1 nM) | 0.9 (≈ 2.48 nM) | O=C(O)CCCCC1=C[C@H]2C[C@@H](O)[C@H](/C=C/[C@@H](O)C3CCCCC3)[C@H]2C1 [Compound 98, 3-(4-Carboxybutyl)-6β-(3α-hydroxy-3-cyclohexylprop-1-enyl)-7α-hydroxy-cis-bicyclo[3,3,0]oct-2-ene] | – | – | –
5 | – | 1.1 (≈ 3.03 nM) | O=C(O)CCCCC1=C[C@H]2C[C@@H](O)[C@H](/C=C/[C@@H](O)CC3CCCC3)[C@H]2C1 [Compound 100, 3-(4-Carboxybutyl)-6β-(3α-hydroxy-4-cyclopentylbut-1-enyl)-7α-hydroxy-cis-bicyclo[3,3,0]oct-2-ene] | – | – | –
6 | 36 (≈ 102 nM) | 9.3 (≈ 26.2 nM) | CCCCC[C@H](O)/C=C/[C@H]1[C@H](O)CC(=O)[C@@H]1CCCCCCC(=O)O [Compound A, PGE1, reference compound] | – | – | –
7 | – | – | CCCCC[C@H](O)/C=C/[C@@H]1[C@H]2C/C(=C/CCCC(=O)O)C[C@H]2C[C@H]1O [Compound B, carbacyclin] | 36 (≈ 103 nM) | 13.3 (≈ 37.9 nM) | –
8 | 5.9 (≈ 16.8 nM) | 3.6 (≈ 10.3 nM) | CCCCC[C@H](O)/C=C/[C@@H]1[C@H]2CC(CCCCC(=O)O)=C[C@H]2C[C@H]1O [Compound C, reference compound] | – | – | has the ability to inhibit aggregation blood platelets
